This note sets out measurements from ChEMBL document CHEMBL1687944, “Purification and inhibition studies with anions and sulfonamides of an α-carbonic anhydrase from the Antarctic seal Leptonychotes weddellii” (Bioorg Med Chem, 2011).

Where only a bound is given, the exact number is not on record here.

The target of the assay is Carbonic anhydrase 1 (Homo sapiens, UniProt P00915).
Carbonic anhydrase 1, sequence (P00915 whole entry): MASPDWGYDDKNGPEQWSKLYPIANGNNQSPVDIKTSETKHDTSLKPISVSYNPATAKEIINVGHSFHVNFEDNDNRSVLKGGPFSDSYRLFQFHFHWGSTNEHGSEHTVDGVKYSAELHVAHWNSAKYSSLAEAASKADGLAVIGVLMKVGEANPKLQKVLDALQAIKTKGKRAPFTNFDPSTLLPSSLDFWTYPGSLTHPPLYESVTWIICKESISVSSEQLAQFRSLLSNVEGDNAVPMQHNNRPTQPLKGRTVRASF
The Ki is the dissociation constant of the complex between target and ligand, obtained from inhibition or displacement. Lower therefore signals a stronger hold on the target. Take `O=S([O-])O.[Na+]` [SODIUM BISULFITE]: affinity was put at a Ki of 18 mM. In the case of `O=[N+]([O-])[O-].[Na+]` [SODIUM NITRATE], the affinity, expressed as Ki, was 7 mM. In the case of `[O-][Cl+3]([O-])([O-])O` [SODIUM PERCHLORATE] it was > 200 mM.
